From PubChem BioAssay (NCI)
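Compound exposure: 48 hours, 5 concentrations, 96-well plates. GI50: concentration for 50% inhibition of growth. The concentration for full growth arrest is given as TGI.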

Experiments:
Test in all cases: inhibition of tumour cell growth, NCI panel, 48 h
[1] = test system: NCI-H522 lung
[2] = test system: DU-145 prostate
[3] = test system: SK-OV-3 ovarian
[4] = test system: NCI-H23 lung
[5] = test system: NCI-H460 lung
[6] = test system: SNB-19 CNS
[7] = test system: HS 578T breast
[8] = test system: K-562 leukemia
[9] = test system: SNB-75 CNS
[10] = test system: OVCAR-8 ovarian
[11] = test system: CAKI-1 renal
[12] = test system: MDA-MB-231 breast
[13] = test system: EKVX NSCLC
[14] = test system: 786-0 renal
[15] = test system: RPMI-8226 leukemia
[16] = test system: HCT-116 colon
[17] = test system: SF-295 CNS
[18] = test system: M14 melanoma
[19] = test system: HL-60(TB) leukemia
[20] = test system: HCT-15 colon
[21] = test system: HT29 colon
[22] = test system: SF-539 CNS
[23] = test system: BT-549 breast
[24] = test system: CCRF-CEM leukemia
[25] = test system: RXF 393 renal
[26] = test system: SF-268 CNS
[27] = test system: MOLT-4 leukemia
[28] = test system: LOX IMVI melanoma
[29] = test system: HOP-92 NSCLC
[30] = test system: MALME-3M melanoma
[31] = test system: A549 NSCLC
[32] = test system: PC-3 prostate
[33] = test system: NCI/ADR-RES ovarian
[34] = test system: HCC-2998 colon
[35] = test system: SW-620 colon
[36] = test system: SK-MEL-5 melanoma
[37] = test system: HOP-62 NSCLC
[38] = test system: SK-MEL-28 melanoma
[39] = test system: SN12C renal
[40] = test system: NCI-H226 lung
[41] = test system: SK-MEL-2 melanoma
[42] = test system: MDA-N
[43] = test system: MDA-MB-435
[44] = test system: COLO 205 colon
[45] = test system: TK-10 renal
[46] = test system: ACHN renal
[47] = test system: KM12 colon
[48] = test system: IGROV1 ovarian
[49] = test system: OVCAR-3 ovarian
[50] = test system: OVCAR-4 ovarian
[51] = test system: UACC-257 melanoma
[52] = test system: UO-31 renal
[53] = test system: OVCAR-5 ovarian
[54] = test system: U251 CNS
[55] = test system: UACC-62 melanoma
[56] = test system: A498 renal
[57] = test system: SR leukemia
[58] = test system: MCF7 breast
[59] = test system: T-47D breast

c1nc(OCC2CCCCC2)c2[nH]cnc2n1
TGI [1]: > 100 µM | TGI [2]: > 100 µM | TGI [3]: > 100 µM | TGI [4]: > 100 µM | TGI [5]: > 100 µM | TGI [6]: > 100 µM | TGI [7]: > 100 µM | TGI [8]: > 100 µM | TGI [9]: > 100 µM | TGI [10]: > 100 µM | TGI [11]: > 100 µM | TGI [12]: > 100 µM | TGI [13]: > 100 µM | TGI [14]: > 100 µM | TGI [15]: > 100 µM | TGI [16]: > 100 µM | TGI [17]: > 100 µM | TGI [18]: > 100 µM | TGI [19]: > 100 µM | TGI [20]: > 100 µM | TGI [21]: > 100 µM | TGI [22]: > 100 µM | TGI [23]: > 100 µM | TGI [24]: > 100 µM | TGI [25]: > 100 µM | TGI [26]: > 100 µM | TGI [27]: > 100 µM | TGI [28]: > 100 µM | TGI [29]: > 100 µM | TGI [30]: > 100 µM | TGI [31]: > 100 µM | TGI [32]: > 100 µM | TGI [33]: > 100 µM | TGI [34]: > 100 µM | TGI [35]: > 100 µM | TGI [36]: > 100 µM | TGI [37]: > 100 µM | TGI [38]: > 100 µM | TGI [39]: > 100 µM | TGI [40]: > 100 µM | TGI [41]: > 100 µM | TGI [42]: > 100 µM | TGI [43]: > 100 µM | TGI [44]: > 100 µM | TGI [45]: > 100 µM | TGI [46]: > 100 µM | TGI [47]: > 100 µM | TGI [48]: > 100 µM | TGI [49]: > 100 µM | TGI [50]: > 100 µM | TGI [51]: > 100 µM | TGI [52]: > 100 µM | TGI [53]: > 100 µM | TGI [54]: > 100 µM | TGI [55]: > 100 µM

COc1cc(OC)c(-c2ccc(OCc3ccccc3)c3c(OC)cc(C)cc23)c2c1C(C)=N[C@H](C)C2
TGI [56]: 3.93 µM | TGI [1]: 3.6 µM | TGI [2]: 4.16 µM | TGI [3]: 4.03 µM | TGI [4]: 4.23 µM | TGI [5]: 3.84 µM | TGI [6]: 4.54 µM | TGI [7]: 4.41 µM | TGI [8]: 3.43 µM | TGI [9]: 4.04 µM | TGI [10]: 3.68 µM | TGI [11]: > 12.5 µM | TGI [12]: 4.18 µM | TGI [13]: 4.39 µM | TGI [14]: 3.8 µM | TGI [15]: 3.61 µM | TGI [16]: 3.97 µM | TGI [17]: 3.78 µM | TGI [18]: 3.79 µM | TGI [19]: 4.4 µM | TGI [20]: 4 µM | TGI [21]: 3.84 µM | TGI [22]: 4.32 µM | TGI [23]: 7.93 µM | TGI [24]: 4.36 µM | TGI [25]: 4.94 µM | TGI [26]: 3.56 µM | TGI [27]: 4.28 µM | TGI [28]: 3.65 µM | TGI [29]: 3.35 µM | TGI [30]: 3.57 µM | TGI [31]: 4.22 µM | TGI [32]: 3.9 µM | TGI [33]: 3.92 µM | TGI [35]: 4.68 µM | TGI [36]: 4.1 µM | TGI [37]: 4.16 µM | TGI [38]: 4.38 µM | TGI [39]: 3.74 µM | TGI [40]: 5.52 µM | TGI [41]: 4.09 µM | TGI [57]: 3.08 µM | TGI [42]: 4 µM | TGI [43]: 4.12 µM | TGI [44]: 4.5 µM | TGI [45]: 3.43 µM | TGI [46]: 4.01 µM | TGI [47]: 4.07 µM | TGI [48]: 3.57 µM | TGI [49]: 4.08 µM | TGI [50]: 4.01 µM | TGI [51]: 3.91 µM | TGI [52]: 2.63 µM | TGI [53]: 4.44 µM | TGI [54]: 3.91 µM | TGI [55]: 3.84 µM

CC(C)C(=O)[C@@]1(C)SC[C@H]2CCN=C21
TGI [56]: > 100 µM | TGI [1]: > 100 µM | TGI [2]: > 100 µM | TGI [3]: > 100 µM | TGI [4]: > 100 µM | TGI [5]: > 100 µM | TGI [6]: > 100 µM | TGI [7]: > 100 µM | TGI [8]: > 100 µM | TGI [58]: > 100 µM | TGI [10]: > 100 µM | TGI [11]: > 100 µM | TGI [13]: > 100 µM | TGI [14]: > 100 µM | TGI [15]: > 100 µM | TGI [16]: > 100 µM | TGI [17]: > 100 µM | TGI [18]: > 100 µM | TGI [19]: > 100 µM | TGI [20]: > 100 µM | TGI [21]: > 100 µM | TGI [22]: > 100 µM | TGI [23]: > 100 µM | TGI [24]: > 100 µM | TGI [25]: > 100 µM | TGI [27]: > 100 µM | TGI [28]: > 100 µM | TGI [29]: 75 µM | TGI [30]: > 100 µM | TGI [31]: > 100 µM | TGI [33]: > 100 µM | TGI [34]: > 100 µM | TGI [35]: > 100 µM | TGI [36]: > 100 µM | TGI [38]: > 100 µM | TGI [39]: > 100 µM | TGI [40]: > 100 µM | TGI [57]: > 100 µM | TGI [42]: > 100 µM | TGI [43]: > 100 µM | TGI [44]: > 100 µM | TGI [45]: > 100 µM | TGI [46]: > 100 µM | TGI [47]: > 100 µM | TGI [48]: > 100 µM | TGI [49]: > 100 µM | TGI [50]: > 100 µM | TGI [51]: > 100 µM | TGI [52]: > 100 µM | TGI [53]: > 100 µM | TGI [55]: > 100 µM

Oc1cn(-c2ccc(Cl)cc2)nc1-c1nnc(-c2ccccc2)o1
TGI [56]: 56.3 µM | TGI [1]: 22.9 µM | TGI [2]: > 60.6 µM | TGI [3]: > 74 µM | TGI [4]: 1.01 µM | TGI [5]: 13.8 µM | TGI [6]: > 68.5 µM | TGI [7]: 40.8 µM | TGI [8]: 19.6 µM | TGI [58]: 7.16 µM | TGI [9]: > 100 µM | TGI [10]: 14.2 µM | TGI [11]: 11.1 µM | TGI [12]: 36.1 µM | TGI [13]: > 60.1 µM | TGI [14]: 12.2 µM | TGI [15]: 31.9 µM | TGI [16]: 1.14 µM | TGI [17]: 4.52 µM | TGI [18]: 11.7 µM | TGI [19]: 17.7 µM | TGI [20]: 27.2 µM | TGI [21]: 27.6 µM | TGI [22]: 27 µM | GI50 [23]: 4.24 µM | TGI [23]: > 91.9 µM | GI50 [24]: 2.46 µM | TGI [24]: > 100 µM | TGI [25]: 9.55 µM | TGI [26]: 17.9 µM | TGI [27]: 19.9 µM | GI50 [28]: 1.63 µM | TGI [28]: 20.5 µM | TGI [29]: 80.6 µM | TGI [30]: 31.8 µM | TGI [31]: 31.5 µM | TGI [32]: > 66.6 µM | TGI [33]: 7 µM | GI50 [34]: 0.739 µM | TGI [34]: 5.91 µM | TGI [35]: 36.4 µM | TGI [59]: > 92.7 µM | TGI [36]: 5.13 µM | TGI [37]: 4.64 µM | TGI [38]: 53.1 µM | TGI [39]: > 57 µM | TGI [40]: 30.7 µM | TGI [41]: > 71.3 µM | TGI [57]: 20.8 µM | TGI [43]: 10.4 µM | TGI [44]: > 49.8 µM | TGI [45]: 3.76 µM | TGI [46]: 24.5 µM | TGI [47]: 4.05 µM | TGI [48]: > 53.4 µM | TGI [49]: 11.6 µM | TGI [50]: > 100 µM | TGI [51]: 21.6 µM | TGI [52]: 31.9 µM | TGI [53]: 39.3 µM | TGI [54]: 30.8 µM | TGI [55]: > 51.1 µM
